Laboratory results taken from patent US11691980B2, “Liphagal analog and multi-targeted kinase inhibitor containing liphagal or analog thereof” (TOHOKU UNIVERSITY, priority 2017, dated 2023).

Columns and labels:
Format in all cases: biochemical
[1] = target: T1, MNK2 (Homo sapiens, UniProt Q9HBH9); assay: mobility shift assay
T1 construct: purchased Carna Biosciences

[2] = target: T2, BLK (Homo sapiens, UniProt P51451); assay: mobility shift assay
T2 construct: purchased Carna Biosciences

[3] = target: T3, PKR (Homo sapiens, UniProt P19525); assay: IMAP Assay
T3 construct: purchased Carna Biosciences

[4] = target: T4, KIT(D816E) (Homo sapiens, UniProt P10721, D816E); assay: mobility shift assay
T4 construct: purchased Carna Biosciences

[5] = target: T5, p38δ (Homo sapiens, UniProt O15264); assay: mobility shift assay
T5 construct: purchased Carna Biosciences

[6] = target: T6, KDR (Homo sapiens, UniProt P35968); assay: mobility shift assay
T6 construct: purchased Carna Biosciences

[7] = target: T7, SYK (Homo sapiens, UniProt P43405); assay: mobility shift assay
T7 construct: purchased Carna Biosciences

[8] = target: T8, ALK(R1275Q) (Homo sapiens, UniProt Q9UM73, R1275Q); assay: mobility shift assay
T8 construct: purchased Carna Biosciences

[9] = target: T9, CLK2 (Homo sapiens, UniProt P49760); assay: mobility shift assay
T9 construct: purchased Carna Biosciences

[10] = target: T10, NuaK1 (Homo sapiens, UniProt O60285); assay: mobility shift assay
T10 construct: purchased Carna Biosciences

[11] = target: T11, PDHK2 (Homo sapiens, UniProt Q15119); assay: mobility shift assay
T11 construct: purchased Carna Biosciences

[12] = target: T12, HPK3 (Homo sapiens, UniProt Q9H422); assay: mobility shift assay
T12 construct: purchased Carna Biosciences

[13] = target: T13, SIK (Homo sapiens, UniProt P57059); assay: mobility shift assay
T13 construct: purchased Carna Biosciences

[14] = target: T14, MAPKAPK3 (Homo sapiens, UniProt Q16644); assay: mobility shift assay
T14 construct: purchased Carna Biosciences

[15] = target: T15, PAK6 (Homo sapiens, UniProt Q9NQU5); assay: mobility shift assay
T15 construct: purchased Carna Biosciences

[16] = target: T16, EGFR(α746-750) (Homo sapiens, UniProt P00533, DEL746-750); assay: mobility shift assay
T16 construct: purchased Carna Biosciences

[17] = target: T17, NEK4 (Homo sapiens, UniProt P51957); assay: mobility shift assay
T17 construct: purchased Carna Biosciences

[18] = target: T18, PKCβ2 (Homo sapiens, UniProt P05771); assay: mobility shift assay
T18 construct: purchased Carna Biosciences

[19] = target: T19, EGFR(L861Q) (Homo sapiens, UniProt P00533, L861Q); assay: mobility shift assay
T19 construct: purchased Carna Biosciences

[20] = target: T20, YES(T348I) (Homo sapiens, UniProt P07947, T348I); assay: mobility shift assay
T20 construct: purchased Carna Biosciences

[21] = target: T21, CKIα (Homo sapiens, UniProt P48729); assay: mobility shift assay
T21 construct: purchased Carna Biosciences

[22] = target: T22, PBK (Homo sapiens, UniProt Q96KB5); assay: mobility shift assay
T22 construct: purchased Carna Biosciences

[23] = target: T23, ALK(G1202R) (Homo sapiens, UniProt Q9UM73, G1202R); assay: mobility shift assay
T23 construct: purchased Carna Biosciences

[24] = target: T24, WNK3 (Homo sapiens, UniProt Q9BYP7); assay: mobility shift assay
T24 construct: purchased Carna Biosciences

[25] = target: T25, PKCl (Homo sapiens, UniProt P41743); assay: mobility shift assay
T25 construct: purchased Carna Biosciences

[26] = target: T26, TYRO3 (Homo sapiens, UniProt Q06418); assay: mobility shift assay
T26 construct: purchased Carna Biosciences

[27] = target: T27, PKD3 (Homo sapiens, UniProt O94806); assay: mobility shift assay
T27 construct: purchased Carna Biosciences

[28] = target: T28, PGK (Homo sapiens, UniProt Q13976); assay: mobility shift assay
T28 construct: purchased Carna Biosciences

[29] = target: T29, MST 1 (Homo sapiens, UniProt Q13043); assay: mobility shift assay
T29 construct: purchased Carna Biosciences

[30] = target: T30, PKCα (Homo sapiens, UniProt P17252); assay: mobility shift assay
T30 construct: purchased Carna Biosciences

[31] = target: T31, CaMK1α (Homo sapiens, UniProt Q14012); assay: mobility shift assay
T31 construct: purchased Carna Biosciences

[32] = test system: ABL(E265K); assay: mobility shift assay; conditions: 10 μM
[33] = target: T32, CDK2/CycA2 (Homo sapiens, UniProt P24941); assay: mobility shift assay
T32 construct: purchased Carna Biosciences

[34] = target: T33, INSR (Homo sapiens, UniProt P06213); assay: mobility shift assay
T33 construct: purchased Carna Biosciences

[35] = target: T34, LYNb (Homo sapiens, UniProt P07948); assay: mobility shift assay
T34 construct: purchased Carna Biosciences

[36] = target: T35, PKD1 (Homo sapiens, UniProt Q15139); assay: mobility shift assay
T35 construct: purchased Carna Biosciences

[37] = target: T36, CaMK2β (Homo sapiens, UniProt Q13554); assay: mobility shift assay
T36 construct: purchased Carna Biosciences

[38] = target: T37, ABL(T315I) (Homo sapiens, UniProt P00519, T315I); assay: mobility shift assay
T37 construct: purchased Carna Biosciences

[39] = target: T38, EPHB3 (Homo sapiens, UniProt P54753); assay: mobility shift assay
T38 construct: purchased Carna Biosciences

[40] = target: T39, HPK1 (Homo sapiens, UniProt Q86Z02); assay: mobility shift assay
T39 construct: purchased Carna Biosciences

[41] = target: T40, NEK6 (Homo sapiens, UniProt Q9HC98); assay: mobility shift assay
T40 construct: purchased Carna Biosciences

[42] = target: T41, KIT(V654A) (Homo sapiens, UniProt P10721, V654A); assay: mobility shift assay
T41 construct: purchased Carna Biosciences

T8 sequence (Q9UM73 19-1620 R1275Q): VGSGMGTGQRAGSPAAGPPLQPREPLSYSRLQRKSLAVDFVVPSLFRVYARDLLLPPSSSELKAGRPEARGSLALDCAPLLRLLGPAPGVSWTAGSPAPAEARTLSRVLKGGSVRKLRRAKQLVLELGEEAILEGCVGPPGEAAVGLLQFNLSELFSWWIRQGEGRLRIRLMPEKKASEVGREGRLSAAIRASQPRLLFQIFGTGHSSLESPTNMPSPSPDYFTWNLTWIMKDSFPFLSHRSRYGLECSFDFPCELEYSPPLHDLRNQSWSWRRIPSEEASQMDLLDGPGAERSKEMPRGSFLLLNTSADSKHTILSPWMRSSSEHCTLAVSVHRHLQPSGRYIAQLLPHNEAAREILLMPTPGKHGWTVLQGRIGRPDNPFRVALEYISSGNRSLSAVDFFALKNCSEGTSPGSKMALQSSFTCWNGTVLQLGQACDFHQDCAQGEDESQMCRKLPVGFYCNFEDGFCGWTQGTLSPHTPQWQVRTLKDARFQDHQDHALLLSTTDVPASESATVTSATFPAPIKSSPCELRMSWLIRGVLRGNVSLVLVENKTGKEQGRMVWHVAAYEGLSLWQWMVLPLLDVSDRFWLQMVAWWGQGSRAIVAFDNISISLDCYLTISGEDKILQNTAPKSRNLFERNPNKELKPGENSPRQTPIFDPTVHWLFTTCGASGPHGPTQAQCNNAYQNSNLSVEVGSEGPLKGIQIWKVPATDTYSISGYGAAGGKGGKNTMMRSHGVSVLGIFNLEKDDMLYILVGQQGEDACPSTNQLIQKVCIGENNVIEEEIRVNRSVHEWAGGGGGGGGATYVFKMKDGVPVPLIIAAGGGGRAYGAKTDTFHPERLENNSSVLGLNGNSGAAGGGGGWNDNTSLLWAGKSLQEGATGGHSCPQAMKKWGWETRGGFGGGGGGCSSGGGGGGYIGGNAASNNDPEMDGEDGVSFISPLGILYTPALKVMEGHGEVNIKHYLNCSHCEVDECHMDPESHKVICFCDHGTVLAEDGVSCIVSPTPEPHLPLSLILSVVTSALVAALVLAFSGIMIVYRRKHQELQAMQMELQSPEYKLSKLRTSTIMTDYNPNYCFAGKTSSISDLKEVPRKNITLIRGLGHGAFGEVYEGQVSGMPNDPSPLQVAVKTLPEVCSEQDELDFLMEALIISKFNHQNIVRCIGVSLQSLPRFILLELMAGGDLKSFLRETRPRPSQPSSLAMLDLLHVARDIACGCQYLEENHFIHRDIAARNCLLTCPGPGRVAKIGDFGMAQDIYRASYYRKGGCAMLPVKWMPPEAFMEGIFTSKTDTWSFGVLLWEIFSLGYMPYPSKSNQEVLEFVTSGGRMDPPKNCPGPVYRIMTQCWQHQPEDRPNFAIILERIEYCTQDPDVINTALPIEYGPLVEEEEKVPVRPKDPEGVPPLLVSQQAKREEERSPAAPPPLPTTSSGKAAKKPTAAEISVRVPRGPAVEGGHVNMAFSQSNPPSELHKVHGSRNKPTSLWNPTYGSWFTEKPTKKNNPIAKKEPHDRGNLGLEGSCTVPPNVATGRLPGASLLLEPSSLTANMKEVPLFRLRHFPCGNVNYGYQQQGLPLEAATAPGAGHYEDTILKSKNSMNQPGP
T12 sequence (Q9H422 whole entry): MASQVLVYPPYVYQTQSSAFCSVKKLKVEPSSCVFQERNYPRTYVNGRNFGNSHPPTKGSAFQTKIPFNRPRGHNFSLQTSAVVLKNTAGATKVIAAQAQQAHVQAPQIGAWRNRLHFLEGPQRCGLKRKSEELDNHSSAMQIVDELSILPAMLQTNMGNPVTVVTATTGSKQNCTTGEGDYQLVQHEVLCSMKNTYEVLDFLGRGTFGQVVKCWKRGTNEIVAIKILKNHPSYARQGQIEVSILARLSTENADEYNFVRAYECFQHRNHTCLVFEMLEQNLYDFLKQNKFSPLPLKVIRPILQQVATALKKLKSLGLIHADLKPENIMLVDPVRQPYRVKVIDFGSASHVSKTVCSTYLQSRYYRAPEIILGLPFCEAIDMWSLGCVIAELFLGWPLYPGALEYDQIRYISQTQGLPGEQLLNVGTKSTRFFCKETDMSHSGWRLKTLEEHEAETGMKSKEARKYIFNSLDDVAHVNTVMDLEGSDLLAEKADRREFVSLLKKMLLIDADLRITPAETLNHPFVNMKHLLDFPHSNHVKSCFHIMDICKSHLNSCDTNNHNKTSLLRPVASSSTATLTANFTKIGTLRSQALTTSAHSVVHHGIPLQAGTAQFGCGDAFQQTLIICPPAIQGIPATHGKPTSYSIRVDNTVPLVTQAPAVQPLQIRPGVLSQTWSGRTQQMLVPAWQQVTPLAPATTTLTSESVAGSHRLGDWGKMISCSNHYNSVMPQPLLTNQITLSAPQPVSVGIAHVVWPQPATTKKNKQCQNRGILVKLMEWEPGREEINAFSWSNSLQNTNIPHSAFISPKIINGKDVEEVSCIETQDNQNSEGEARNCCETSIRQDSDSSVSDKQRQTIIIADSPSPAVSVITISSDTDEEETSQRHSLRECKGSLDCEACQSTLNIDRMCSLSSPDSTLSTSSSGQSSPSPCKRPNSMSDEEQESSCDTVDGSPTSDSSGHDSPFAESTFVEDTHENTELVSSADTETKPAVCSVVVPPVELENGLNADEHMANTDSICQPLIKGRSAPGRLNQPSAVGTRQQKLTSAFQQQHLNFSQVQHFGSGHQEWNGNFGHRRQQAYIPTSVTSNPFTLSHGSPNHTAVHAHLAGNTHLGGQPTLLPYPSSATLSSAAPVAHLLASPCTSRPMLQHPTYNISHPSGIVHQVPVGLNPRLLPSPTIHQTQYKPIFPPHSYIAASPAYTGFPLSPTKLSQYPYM
T29 sequence (Q13043 whole entry): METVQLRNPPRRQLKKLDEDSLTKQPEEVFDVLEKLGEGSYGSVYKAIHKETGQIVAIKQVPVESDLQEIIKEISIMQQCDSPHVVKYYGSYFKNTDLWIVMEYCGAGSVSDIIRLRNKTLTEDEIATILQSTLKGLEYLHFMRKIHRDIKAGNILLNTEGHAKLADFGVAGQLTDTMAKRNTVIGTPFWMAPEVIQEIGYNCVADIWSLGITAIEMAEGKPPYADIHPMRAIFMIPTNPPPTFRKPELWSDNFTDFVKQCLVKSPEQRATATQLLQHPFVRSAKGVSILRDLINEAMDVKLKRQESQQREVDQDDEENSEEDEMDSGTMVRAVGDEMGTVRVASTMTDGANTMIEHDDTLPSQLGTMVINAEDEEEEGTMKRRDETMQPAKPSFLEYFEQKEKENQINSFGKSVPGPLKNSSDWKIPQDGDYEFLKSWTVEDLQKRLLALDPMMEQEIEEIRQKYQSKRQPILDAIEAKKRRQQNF
T35 sequence (Q15139 whole entry): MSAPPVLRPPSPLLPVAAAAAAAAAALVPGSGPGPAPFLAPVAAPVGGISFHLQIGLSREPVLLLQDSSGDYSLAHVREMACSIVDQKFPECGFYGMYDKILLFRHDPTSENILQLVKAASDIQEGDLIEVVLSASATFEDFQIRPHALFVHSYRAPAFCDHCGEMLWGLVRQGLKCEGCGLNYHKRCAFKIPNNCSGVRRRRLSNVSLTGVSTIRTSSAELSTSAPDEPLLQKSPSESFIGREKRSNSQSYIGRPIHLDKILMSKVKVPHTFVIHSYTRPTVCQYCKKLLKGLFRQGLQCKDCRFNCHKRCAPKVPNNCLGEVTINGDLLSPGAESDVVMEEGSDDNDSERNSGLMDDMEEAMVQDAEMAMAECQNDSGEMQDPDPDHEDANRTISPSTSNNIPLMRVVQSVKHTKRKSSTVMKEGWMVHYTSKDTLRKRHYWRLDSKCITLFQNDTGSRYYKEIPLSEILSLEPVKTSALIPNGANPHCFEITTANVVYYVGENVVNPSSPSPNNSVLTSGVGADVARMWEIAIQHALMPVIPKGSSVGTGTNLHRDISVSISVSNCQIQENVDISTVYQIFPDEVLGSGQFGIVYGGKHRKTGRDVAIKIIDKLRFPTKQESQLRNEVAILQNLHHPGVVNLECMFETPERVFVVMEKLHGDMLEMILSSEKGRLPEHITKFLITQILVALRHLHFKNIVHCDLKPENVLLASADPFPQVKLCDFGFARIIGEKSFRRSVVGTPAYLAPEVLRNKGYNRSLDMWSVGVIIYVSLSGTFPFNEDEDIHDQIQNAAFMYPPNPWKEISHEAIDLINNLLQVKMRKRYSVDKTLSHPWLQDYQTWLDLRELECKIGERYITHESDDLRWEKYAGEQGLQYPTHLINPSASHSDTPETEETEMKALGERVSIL
T18 sequence (P05771 1-673 isoform P05771-2): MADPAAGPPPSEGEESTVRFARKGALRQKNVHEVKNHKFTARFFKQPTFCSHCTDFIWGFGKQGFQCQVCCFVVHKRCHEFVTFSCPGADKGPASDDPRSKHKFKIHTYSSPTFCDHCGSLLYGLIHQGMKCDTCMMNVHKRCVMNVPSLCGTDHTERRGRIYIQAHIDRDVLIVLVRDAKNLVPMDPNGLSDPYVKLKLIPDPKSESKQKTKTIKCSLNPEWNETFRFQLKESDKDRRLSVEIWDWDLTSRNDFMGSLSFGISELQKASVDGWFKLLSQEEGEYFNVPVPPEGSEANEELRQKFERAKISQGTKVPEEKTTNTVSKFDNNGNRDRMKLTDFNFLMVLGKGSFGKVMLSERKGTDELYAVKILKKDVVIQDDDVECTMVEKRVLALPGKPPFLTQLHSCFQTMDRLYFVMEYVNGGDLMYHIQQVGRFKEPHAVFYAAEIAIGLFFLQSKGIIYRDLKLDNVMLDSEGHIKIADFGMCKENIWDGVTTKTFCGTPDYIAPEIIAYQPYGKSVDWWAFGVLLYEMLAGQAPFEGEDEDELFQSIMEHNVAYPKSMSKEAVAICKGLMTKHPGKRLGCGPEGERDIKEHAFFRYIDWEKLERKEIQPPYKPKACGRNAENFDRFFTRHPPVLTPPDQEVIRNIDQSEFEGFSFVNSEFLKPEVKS
T23 sequence (Q9UM73 19-1620 G1202R): as the sequence (Q9UM73 19-1620 R1275Q) above, with G1184R, Q1257R counted along it

C[C@@H]1CC[C@H]2C(C)(C)CCC[C@]2(C)c2c1oc1c(C=O)c(O)c(O)cc21 [LG-1, liphagal]
inhibition at 10 µM [1]: 5.9% | inhibition at 10 µM [2]: 29.4% | inhibition at 10 µM [3]: 13.8% | inhibition at 10 µM [4]: 19.4% | inhibition at 10 µM [5]: -0.1% | inhibition at 10 µM [6]: -1.1% | inhibition at 10 µM [7]: 17% | inhibition at 10 µM [8]: -0.5% | inhibition at 10 µM [9]: -25.5% | inhibition at 10 µM [10]: 6% | inhibition at 10 µM [11]: 47.2% | inhibition at 10 µM [12]: 20.5% | inhibition at 10 µM [13]: 33.7% | inhibition at 10 µM [14]: 4.8% | inhibition at 10 µM [15]: -99.3% | inhibition at 10 µM [16]: -5.1% | inhibition at 10 µM [17]: 8.7% | inhibition at 10 µM [18]: -13.2% | inhibition at 10 µM [19]: 1.5% | inhibition at 10 µM [20]: 3.7% | inhibition at 10 µM [21]: 20.5% | inhibition at 10 µM [22]: 13% | inhibition at 10 µM [23]: -0.3% | inhibition at 10 µM [24]: 19% | inhibition at 10 µM [25]: 12.3% | inhibition at 10 µM [26]: -6.6% | inhibition at 10 µM [27]: 2.7% | inhibition at 10 µM [28]: 6.1% | inhibition at 10 µM [29]: 24.3% | inhibition at 10 µM [30]: -8% | inhibition at 10 µM [31]: 25.7% | % Inhibition [32]: −3.3% | inhibition at 10 µM [33]: 10.3% | inhibition at 10 µM [34]: 14.1% | inhibition at 10 µM [35]: 2.8% | inhibition at 10 µM [36]: 4.2% | inhibition at 10 µM [37]: 1.9% | inhibition at 10 µM [38]: 6.1% | inhibition at 10 µM [39]: 1.7% | inhibition at 10 µM [40]: 26.1% | inhibition at 10 µM [41]: 65.4% | inhibition at 10 µM [42]: 22.3%
